According to patent publication US7091238B1, “Thienylhydrazon with digitalis-like properties (positive inotropic effects)” (University of Maryland, priority 1999, dated 2006):
“Also recorded” adds a separate entry of the source.

Assays:
single muscle fiber = experiment: Fatigue development in single amphibian muscle fibers under repetitive tetanic stimulation; assay type: cell-based, frog, rana pipiens
Procedure: FIG. 17. Time course of fatigue development. Fatigue was produced by 60 Hz, 0.8 sec tetanic stimulations repeated every 4.75 sec with a twitch elicited 2.2 sec after each tetanic stimulation. a) single tetanus. b) repeated tetanic stimulations. Notice the time calibration. A) In 50 μM of DMSO only B) Same as in A, but the fiber was bathed with 50 μM of compound LASSBio-294.
FIG. 28. Time (in min) for tetanic force to decrease (fatigue) to 50% of the original tetanic force during repetitive stimulations as in FIG. 17. Left column in 50 μM of DMSO only (˜6 in). Right column in 50 μM of LASSBio-294 (˜9 min).
FIG. 29. Time of recovery to 80% of the pre-fatigue tetanic force. Left column in 50 μM of DMSO only (˜90 min). Right column in 50 μM of LASSBio-294 (˜10 min).
c. […] A is 50 μM DMSO in Ringer's solution, B is 50 μM LASSBio-294. The time to fatigue in LASSBio-294-treated is approximately 50% longer than control.
The tests in amphibians were performed in isolated single muscle cells freshly isolated from either the semitendinous or the tibialis anterior muscles of the frog, rana pipiens. The isolated muscle cells were left resting for at least half an hour in Ringer's solution. The fibers were then stimulated with single, low-voltage, electric shocks. If fibers gave brisk twitches and had no signs of membrane damage, they were used. Otherwise, they were discarded. Healthy fibers were transferred to the experimental chamber, which consisted of a 0.3 ml narrow channel where the solutions could be changed several times within five seconds. One tendon of the fiber was gripped with a small clamp and the other tendon was attached to a hook of an Ekhart;s type force transducer. The stimulating electrode consisted of platinum wires placed to each side of the fiber. The muscle fibers were stretched 1.3 times their slack length to reach approximately an average sarcomere length of 1.6 μm.
The fibers were stimulated with single electric pulses of 0.5 msec duration and variable voltage. The voltage was increased until the threshold for contraction was reached. […]

dogs [1] = experiment: Left intraventricular and arterial pressure in intact anesthetized dogs; assay type: in vivo, dog; details: normal cardiac function, no pre-load, 1 mg kg^−1 min^−1 for 13 min
Procedure: FIG. 6. Recording of left intraventricular pressure and arterial pressure in dogs anesthetized and ventilated normally.
FIG. 6 illustrates a test that measured pressure from the hearts of intact dogs during LASSBio-294 application. Recordings were made of left intraventricular pressure and arterial pressure.
Dogs were anesthetized and normally ventilated. Recordings were made before and after application of LASSBio-294, 1 mg kg^−1 min^−1 for 13 min.

[2] = tested on: neuromuscular transmission; experiment: Contractions of gastrocnemius muscle induced by stimulation of the sciatic nerve; assay type: in vivo; details: rat gastrocnemius, vs DMSO vehicle
Procedure: FIG. 30. Records of contractions induced by stimulation of the sciatic nerve of equilibrated rat gastrocnemius muscles and of arterial pressure. In control, contractions were induced by intravenous injection of DMSO ([…]). LASSBio-294 was administered in DMSO. Calibration: Horizontal, 1 cm=24 s; Vertical 2 g=100 mm Hg.
FIG. 31. Records of contractions of rat gastrocnemius muscles induced by stimulation of the sciatic nerve and of arterial pressure. For control, contraction was induced by intravenous injection of […] (0.04 ml). LASSBio-294 was administered in DMSO.

tissues and organs = experiment: Histopathological study of tissues and organs after daily injection; assay type: in vivo, rat; details: 2 or 10 mg/kg injected daily for more than 14 days
dogs [3] = experiment: LD 50 in dogs; assay type: in vivo; details: dogs
Procedure: (§1) LASSBio-294 has very low toxic effects. This was tested in whole mouse, rat, and dog models (Greaves, P. (1998) Exp. Toxicol. Pathol. 50, 283). These models are commonly used to predict toxicity in humans (Chou, W. L., Robbie G., Chung, S. M., Wu, T. C., and Ma, C. (1998) Pharm. Res. 15, 1474). […] These tests predict LASSBio-294 can be dosed in humans to achieve therapeutic plasma levels without significant risk of toxicity.

LD 50 in dogs = assay type: in vivo; details: dog, in vivo
Procedure: as §1

O=C(NN=Cc1cccs1)c1ccc2c(c1)OCO2 [LASSBio-294, 3,4-methylenedioxybenzoyl-2-thienylhydrazone]
time to fatigue, longer than control (single muscle fiber; 50 μM vs 50 μM DMSO, 60 Hz 0.8 sec tetanic stimulations): approximately 50%
time for tetanic force to decrease (fatigue) to 50% of the original tetanic force (single muscle fiber; 50 μM, repetitive stimulations): ~9 min
resistance to muscle fatigue (single muscle fiber; treated skeletal muscle fibers vs control fibers): increased resistance to muscle fatigue
left intraventricular pressure and arterial pressure (dogs [1]): no change in pressure
effect on neuromuscular junction / transmission [2]: no effect on the neuromuscular junction; also recorded: no effect on neuromuscular transmission; also recorded: unaffected
histopathological changes in tissues and organs (tissues and organs): unaffected; also recorded: no pathological changes; also recorded: no significant histopathological changes
LD 50 relative to the effective dose (dogs [3]): > 1000 fold
LD50 (LD 50 in dogs): 1500 mg/kg
